Data reported in patent publication US6888015B2, “Sphingolipid synthesis inhibitor” (Japan Science and Technology Agency, priority 2001, dated 2005).

What was measured:
[1] = tested on: SM synthase; experiment: SM synthase enzyme assay, CHO membrane fraction; assay type: biochemical, Chinese hamster
[2] = tested on: CHO cells; experiment: Viability of cells (MTT); assay type: cell-based, Chinese hamster; settings: 10 μM; data not shown
Description: CHO cells are seeded at a density of 2.0×10^4 per one hole of a 48-hole culture plate in 500 μL of F12 medium containing 10% NBS, and cultivated at 33[…] overnight. Then, the medium is changed to 500 μL of Nutridoma medium containing various concentrations of HPA compounds at 33° C. for 24 hours, and the viability of cells are determined using MTT as disclosed in Document 9.

[3] = molecular target: T1, serine palmitoyltransferase (Cricetulus griseus, UniProt O54694+O54695); experiment: Serine palmitoyltransferase activity, CHO membrane fraction; assay type: biochemical, Chinese hamster; settings: 20 μM; data not shown
T1 construct: Membrane fraction prepared from CHO cells is used as an enzyme source; endogenous in cells; host or cells: CHO cells, membrane fraction
T1 sequence (O54695 1-473): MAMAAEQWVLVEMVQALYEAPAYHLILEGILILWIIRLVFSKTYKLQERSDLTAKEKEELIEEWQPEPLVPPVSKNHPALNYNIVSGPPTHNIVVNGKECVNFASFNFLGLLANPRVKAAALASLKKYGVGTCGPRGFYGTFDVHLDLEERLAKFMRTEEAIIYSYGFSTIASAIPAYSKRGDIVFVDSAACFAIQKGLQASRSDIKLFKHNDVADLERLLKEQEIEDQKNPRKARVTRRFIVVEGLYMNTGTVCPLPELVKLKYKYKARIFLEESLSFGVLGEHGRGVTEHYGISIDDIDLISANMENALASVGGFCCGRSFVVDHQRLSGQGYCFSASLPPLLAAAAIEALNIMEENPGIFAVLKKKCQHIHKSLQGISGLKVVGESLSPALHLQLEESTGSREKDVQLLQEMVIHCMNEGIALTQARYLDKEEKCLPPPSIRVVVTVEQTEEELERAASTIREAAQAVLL
T1 sequence (O54694 1-560): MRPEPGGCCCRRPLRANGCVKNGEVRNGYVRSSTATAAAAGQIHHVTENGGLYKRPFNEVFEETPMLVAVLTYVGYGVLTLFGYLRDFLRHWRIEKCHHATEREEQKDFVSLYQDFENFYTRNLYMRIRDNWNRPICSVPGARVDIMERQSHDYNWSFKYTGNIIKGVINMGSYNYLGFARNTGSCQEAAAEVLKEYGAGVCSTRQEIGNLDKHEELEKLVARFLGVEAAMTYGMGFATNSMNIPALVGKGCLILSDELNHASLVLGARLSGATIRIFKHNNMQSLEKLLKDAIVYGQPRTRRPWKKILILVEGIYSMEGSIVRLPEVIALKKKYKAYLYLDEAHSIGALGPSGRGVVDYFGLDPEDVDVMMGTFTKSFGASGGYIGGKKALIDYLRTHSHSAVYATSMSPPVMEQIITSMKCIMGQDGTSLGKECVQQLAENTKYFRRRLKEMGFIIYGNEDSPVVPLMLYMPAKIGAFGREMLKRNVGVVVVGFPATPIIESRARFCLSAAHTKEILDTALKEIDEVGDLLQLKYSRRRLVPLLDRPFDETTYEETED
Description: Membrane fraction prepared from CHO cells is used as an enzyme source.
Serine palmitoyltransferase activity is determined by the method disclosed in Document 7, and sphingosine N-acyl transferase activity is determined by a modification of the method disclosed in Document 7.

[4] = tested on: biosynthesis of phosphatidylcholine; experiment: Metabolic labeling of lipids with [14C]choline; assay type: cell-based, Chinese hamster; settings: 1 μM, 33° C., 4 hours
Description: (§1) CHO cells are seeded at the density of 1.0×10^6 cell in 5 mL of F12 medium containing 10% NBS, by per 60-mm dish, and cultured at 33° C. overnight. Then, the medium is changed to 1.5 mL of Nutridoma medium if necessary, various drugs are added and incubated at 4° C. for 15 minutes. Then, after addition of [^14C] serine (0.75 μCi) or [^14 C] choline (1.0 μCi) to the medium, cells were incubated at 33° C. for various periods of time.
(§2) Cells are washed twice with 2 mL of cold phosphate-buffered saline (PBS), and lysed with 900 μL of 0.1% sodium dodecyl sulfate (SDS). Then, 800 μL and 20 μL of lysate are used for lipid extraction and determination of protein concentration, respectively.
For the analysis of the lipid labeled by [^14C] choline, the lipid is separated by one-dimensional TLC using chloroform/methanol/acetic acid/H2O (25:15:4:2, volume ratio) as a developing solvent. […]
(§3) Radioactive lipid separated on the TLC plates are detected with image analyzer depicted above. After the collection of gels from TLC plates by scraping, the radioactivity of each lipid is determined by liquid scintillation counting and normalized to the protein concentration of cells.

[5] = tested on: de novo synthesis of SM in CHO cells; experiment: Metabolic labeling of lipids with [14C]serine in CHO cells; assay type: cell-based, Chinese hamster
Description: CHO cells are cultured in Ham's F12 medium supplemented with 10% newborn bovine serum (NBS), penicillin G (100 unit/mL) and streptomycin sulfate (100 μg/mL) at the temperature of 33° C. and 5% CO2 atmosphere. In the case of HeLa cells, Dulbecco's minimum essential medium is used as a base medium instead of Ham's F12 medium.
Further, Nutridoma medium (Ham's F12 medium containing 1% Nutridoma-SP, product of Roche Molecular Biochemicals, and 25 μg/mL of gentamicin) is used as a serum-free medium. In the case when the medium is supplemented by DMSO or drugs dissolved in DMSO, the concentration of DMSO in culture medium is adjusted to be 0.01%.
as §1, §2
For the analysis of lipids labeled with [C^14C] serine, lipids were separated by TLC with a solvent consisting of methylacetate/n-propanol/chloroform/methanol/0.25%KCl (25:25:25:10:9, volume ratio) as a developing solvent.
as §3

[6] = [14C]serine labeling, CHO cells
[7] = [14C]serine labeling, weaker than effect on SM (FIG. 2B)

Question: For `CCCCCCCCCCCC(=O)NC(CO)CC(O)c1ccccc1` (stereo not drawn) [HPA-12, N-(3-hydroxy-1-hydroxymethyl-3-phenylprol)dodecaneamide], which “C6-NBD-SM formed (SM synthase activity)” value ([1]; 20 μM, substrate C6-NBD-Cer) is on record?
Answer: 168.1 ± 1.7 pmol/mg protein/10 minutes

Question: And the “inhibition of SM synthase” value ([1]; 20 μM, substrate C6-NBD-Cer)?
Answer: Neither of SM synthase nor GlcCer synthase is inhibited

Question: And the “inhibition of SM synthase activity” value ([1]; substrate C5-DMB-Cer, data not shown)?
Answer: not observed

Question: What about the “toxicity to CHO cells” value [2] of the same compound?
Answer: highly toxic

Question: And the “activity of serine palmitoyltransferase” value [3]?
Answer: does not affect

Question: What about the “level of [14C]PC vs untreated cells” value [4] of the same compound?
Answer: almost equal

Question: And the “level of [14C]SM vs drug-untreated control level” value [4]?
Answer: about half

Question: And the “formation of [14C]SM” value ([5]; 0.1 μM, 2-hour labeling with [14C]serine (FIG. 2A))?
Answer: significantly inhibits

Question: And the “formation of [14C] (SM), level relative to control” value ([5]; 1 μM, time course up to 5 hours (FIG. 2B))?
Answer: approximately 30 % of the drug-free control level

Question: What about the “formation of [14C]SM” value ([5]; 2.5 μM drug, [14C]serine labeling, CHO cells (FIG. 1B)) of the same compound?
Answer: remarkably inhibited

Question: What about the “concentration at which the inhibitory effect on [14C]SM formation reaches a plateau” value ([5]; 2-hour labeling with [14C]serine (FIG. 2A)) of the same compound?
Answer: around 1 μM

Question: What about the “formation of [14C]phosphatidylethanolamine (PE)” value [5, 6] of the same compound?
Answer: does not affect

Question: And the “formation of [14C]phosphatidylserine (PS)” value [5, 6]?
Answer: does not affect

Question: What about the “formation of [14C]Cer” value [5, 7] of the same compound?
Answer: significantly inhibited

Question: What about the “formation of [14C]GlcCer” value [5, 7] of the same compound?
Answer: significantly inhibited
